Ten compounds from patent publication US5886051A, “Methods and compositions for the treatment of neurodegeneration” (University Of Florida Research Foundation, Inc., priority 1995, dated 1999) can be followed below.

The assay deals with N-methyl-D-aspartate receptor complex. The assay is described as follows: [3H]MK-801 binding to rat cortical membranes with excess L-glutamate and glycine, modulated by polyamines. To be noted: for [3H]MK-801 binding relative to "100% Control": 100 μM L-Glu, 100 μM Gly, 2 nM [3H]MK-801, mean ± SD; for effect on [3H]MK-801 binding: at 100 μm; for concentration above which the polyamine is antagonistic: piperidine polyamines, tested 0.05-1,000 μM. The source says: Data are plotted as means ±standard deviation for four separate experiments on each tetraamine: (--.tangle-solidup.--) SPM (n=4), (.largecircle.) DMNSPM (n=4), (.circle-solid.) DMHSPM (n=4), (.rect-hollow.) DENSPM (n=4), (.box-solid.) DEHSPM (N=4), (.increment.) DBHSPM (n=4) and (--.tangle-solidup.--) BAHSPM (n=4).
Cerebral cortices from young male Sprague-Dawley rats (200-300 g) were homogenized with 10 volumes of ice-cold 0.32M sucrose using a motor-driven glass/Teflon homogenizer. The homogenate was centrifuged at 1,000 g for 10 minutes. The 1,000 g pellet was re-suspended in buffer A (5 mM Tris-HCl, pH 7.7 at 4° C.) and centrifuged at 8,000 g for 20 minutes. The supernatant and upper buffy coat of the pellet were combined and centrifuged at 50,000 g for 20 minutes. The pellet was then re-suspended in 10 volumes of buffer A and homogenized using high-intensity ultrasound and centrifuged at 50,000 g, discarding the supernatant. The pellet was washed in this manner an additional three times and stored as a frozen suspension at […] for at least 18 hours, but no longer than two weeks, before use.
For binding experiments, frozen membranes were thawed, pelleted at 50,000 g for 20 minutes and washed as described above, except that 20 volumes of buffer A were used for re-suspension, for a total of five times. The final pellet was re-suspended in buffer B (5 mM Tris-HCl, pH 7.5 at 23° C.).
Binding assays were performed in triplicate at 23° C. for 1 hour and were terminated by filtration through Whatman GF/B glass fiber filters followed by three 5.0 ml rinses of ice-cold buffer B using a Brandel M-48 cell harvester.

In the case of `CC(C)(C)NCCCCNCCCCNCCCCNC(C)(C)C` [DBHSPM], the “[3H]MK-801 binding relative to "100% Control"” value (1 μM tetraamine) came out at 106.5±8.0% and the “[3H]MK-801 binding relative to "100% Control"” value (10 μM tetraamine) is recorded as 33.0±4.0%.

On to `CCNCCCCNCCCCNCCCCNCC` [DEHSPM, diethylhomospermine], for which the “[3H]MK-801 binding relative to "100% Control"” value (1 μM tetraamine) is given as 114.3±4.5% and the “[3H]MK-801 binding relative to "100% Control"” value (10 μM tetraamine) stood at 53.9±6.0%.

For `CCNCCCNCCCNCCCNCC` [DENSPM], the “[3H]MK-801 binding relative to "100% Control"” value is, setting by setting: (1 μM tetraamine) 113.7±5.9%; (10 μM tetraamine) 63.7±5.9%.

Turning to `CNCCCCNCCCCNCCCCNC` [DMHSPM], the “[3H]MK-801 binding relative to "100% Control"” value by setting is: (1 μM tetraamine) 117.8±8.1%; (10 μM tetraamine) 76.3±7.0%.

For `CNCCCNCCCNCCCNC` [DMNSPM], the “[3H]MK-801 binding relative to "100% Control"” value is, setting by setting: (1 μM tetraamine) 120.6±3.1%; (10 μM tetraamine) 87.9±6.0%.

Turning to `C(CNC1CCNCC1)CNC1CCNCC1` [PIP[3,3,3]], the “effect on [3H]MK-801 binding” value was “still agonistic”.

Take `C(CCNC1CCNCC1)CNC1CCNCC1` [PIP[3,4,3]]: the “effect on [3H]MK-801 binding” value was “agonistic”.

As to `C(CCNCC1CCNCC1)CNCC1CCNCC1` [PIP[4,4,4], N,N'-1,4-Butanediylbis(4-piperidinemethanamine)], the “concentration above which the polyamine is antagonistic” value is recorded as “above 12 μm”.

Turning to `C(CCNCCC1CCNCC1)CNCCC1CCNCC1` [PIP[5,4,5], N,N'-1,4-Butanediylbis(4-piperidineethanamine)], the “concentration above which the polyamine is antagonistic” value is “above 13 μm”.

Consider `Cl.Cl.Cl.Cl.NCCCNCCCCNCCCN` [SPM, Spermine tetrahydrochloride, reference compound], for which the “[3H]MK-801 binding relative to "100% Control"” value reads like this: (1 μM tetraamine) 123.2±5.0%; (500 μM tetraamine) 82.0±8.1%; (1,000 μM tetraamine, 1000 µM) 78.9±8.3%. Also, for the setting “at 500 and 1,000 μM”, the “effect on [3H]MK-801 binding relative to "100% Control"” value is “moderate antagonism”.
